Measurements published in patent US20140147856A1, “Intestinal Permeability Assay for Neurodegenerative Diseases” (Rush University Medical Center, priority 2012, published 2014).

Assay: Oral sugar intestinal permeability assay (urinary sugar excretion by gas chromatography)
Type: in vivo, human
Conditions: oral sugar mixture with 1 gram sucralose after overnight fast, 24 h urine
Source text: In an example of a protocol used to validate the instant invention, patients with clinically diagnosed PD not yet requiring dopaminergic therapy were recruited under a clinical protocol (FIG. 1 and Table 1). […] Constipation was defined as fewer than 3 bowel movements per week or if the subject complained of constipation. Men and women who met United Kingdom Parkinson Disease Research Society brain bank criteria for PD, Hoehn & Yahr stage 1-2.5 were included. Subjects were excluded based on the following: atypical or secondary Parkinsonism, any known organic gastrointestinal disease, use of drugs affecting gastrointestinal motility, anti-inflammatory agents, and chronic diuretic use. Control subjects were of similar age and gender that had no GI or neurological symptoms or signs (determined by examination by a board certified neurologist with expertise in movement disorders) and were not taking regular medication or anti-inflammatory agents.
Subjects fasted overnight and subsequently ingested a sugar mixture containing 2 grams mannitol, 7.5 grams lactulose, 40 grams sucrose, and 1 gram sucralose at 6 AM, then collected 2 sequential 12-hour urine samples. Urine was analyzed for sugar content using gas chromatography (GC) techniques as described herein. […] The final residue is dissolved in 0.5 ml acetone and the sample is ready for analysis. […]

mean 24 h urinary sucralose (marker of total intestinal permeability) (PD subjects): 1.12±0.1% of oral dose
mean 24 h urinary sucralose (marker of total intestinal permeability) (age matched controls): 0.58±0.1% of oral dose
SMILES: OC[C@H]1O[C@H](O[C@]2(CCl)O[C@H](CCl)[C@@H](O)[C@@H]2O)[C@H](O)[C@@H](O)[C@H]1Cl [sucralose]
